According to the METLIN SMRT retention time set (Domingo-Almenara et al. 2019):

Experiment: gradient 5% acetonitrile 3 min, to 50% in 2 min, to 85% in 15 min, held 3 min, 100 µL/min
Conditions: column: Zorbax Extend-C18 2.1 x 50 mm; eluents: water / acetonitrile, 0.1% formic acid
How it was run: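 Standards, all pure, were combined into mixtures of ~100 molecules and run at 100 μL/min on a Zorbax Extend-C18 column (2.1 × 50 mm, 1.8 μm) with water and acetonitrile, each containing 0.1% formic acid. A coupled quadrupole time-of-flight mass spectrometer operated in positive and negative ionization mode. Retention time values come from computationally picked adduct peaks, each inspected manually.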

| SMILES | RP-LC retention time [s] |
| --- | --- |
| CC(CCc1ccccc1)NC(=O)CCc1c(-c2ccc(F)cc2)nc2ccccn12 (centres undefined) | 727 |
| CCn1cc(C(=O)NCc2ccc(F)cc2)c2cccnc21 | 771 |
| COc1ccc(-n2ncc3c(=O)n(Cc4nc(-c5ccc(OC(F)(F)F)cc5)no4)cnc32)cc1 | 1100 |
| CCCN1C(=O)COc2ccc(-c3csc(NC(=O)c4c(OC)cccc4OC)n3)cc21 | 944 |
| Cc1ccc(N2C(=O)CN(S(C)(=O)=O)CC2(C)C(=O)NC2CCCCCC2)cc1F (centres undefined) | 905 |
| COc1ccc(NC(=O)Nc2ccc3nc(C)n(-c4ccccc4)c(=O)c3c2)cc1OC | 679 |
| COc1ccc2c(c1)C1(CCN(C(=O)Nc3cccc(C)c3)C1)C(=O)N2C (centres undefined) | 809 |
| CC(N)Cc1c[nH]c2ccc(OCc3cccs3)cc12 (centres undefined) | 734 |
| O=C(Nc1ccc(Nc2ccc(-n3cccn3)nn2)cc1)Nc1ccccc1Cl | 791 |
| Cc1c(C(=O)O)nnn1-c1ccc2c(c1)OCCO2 | 638 |
| CCOc1ccccc1-n1ccn(Cc2nc(-c3ccc(C)cc3)no2)c(=O)c1=O | 920 |
| O=C(c1cccc(OC(F)(F)F)c1)N1C[C@@H]2C[C@H]1C[C@@H]2NS(=O)(=O)c1ccccc1 | 887 |
| O=C(CCc1nc(CSc2nnc(-c3ccccc3)o2)no1)Nc1ccc(Br)cc1 | 967 |
| CCOc1ccc(NC(=O)N(C)CCc2noc(COc3ccccc3)n2)cc1 | 890 |
| FC1(F)CN[C@H](c2nc(-c3ccncc3)no2)C1 | 614 |
| COc1ccc(-c2cn3c(CC(=O)N4CCN(C5CCCCC5)CC4)csc3n2)cc1OC | 594 |
| CN1CCC(N2CCN(C(=O)CCC3CCCN(c4cc(NC5CC5)ncn4)C3)CC2)CC1 (centres undefined) | 534 |
| Cc1[nH]nc(-c2ccc(S(=O)(=O)N3CCN(c4ccccn4)CC3)s2)c1C | 662 |
| CNC(=O)N1CC(C)Oc2ccc(Cl)cc21 (centres undefined) | 806 |
| O=C(C1CC1)N1CCC(COCc2ccccc2)CC1 | 831 |

| SMILES | RP-LC retention time [s] |
| --- | --- |
| C=CCn1c(=O)c2ccccc2n(Cc2nc(-c3ccc(OC)c(OC)c3)no2)c1=O | 937 |
| O=C(CN1CCCc2nc(C3CC3)ncc2C1=O)NCCCN1CCOCC1 | 563 |
| CC(C)Oc1ccc(-c2noc(Cn3c(=O)n(-c4cccc(F)c4)c(=O)c4sccc43)n2)cc1 | 1090 |
| O=c1c2cc(-c3cccs3)nn2cnn1Cc1nc(-c2ccc(Cl)cc2)no1 | 1150 |
| COc1ccc2c(c1)CCc1c-2n[nH]c1C(=O)N1CCN(c2cc(=O)n(C)c(=O)n2C)CC1 | 659 |
| COc1ccc(C2=Nc3ccccc3N(CC(=O)Nc3ccc4c(c3)OCO4)C(=O)C2)cc1 | 895 |
| Cc1nn(-c2ccccc2)c(C)c1CCc1nn2c(-c3cccc(F)c3)nnc2s1 | 934 |
| COc1ccc(CN2CCc3nc(N4CCOCC4)ncc3C2)c(OC)c1 | 611 |
| CC1Oc2ccccc2OC1C(=O)Nc1cccc(C(F)(F)F)c1 (centres undefined) | 1050 |
| C=CCN1C[C@@H](C)N([C@H](c2ccc(C(=O)N(CC)CC)cc2)c2cccc(OC)c2)C[C@@H]1C | 770 |
| Cc1ccc2nc(-c3cc(Br)ccc3F)c(Nc3ccc4c(c3)OCCO4)n2c1 | 737 |
| COc1nn(C)cc1C(=O)Nc1nnc(-c2csc(C)n2)o1 | 578 |
| COc1ccc(C2Cn3cnc(-c4nc(-c5ccc6c(c5)OCO6)no4)c3CO2)cc1 (centres undefined) | 1000 |
| Cc1nn2c(S(=O)(=O)NCc3cccs3)c(C)nc2s1 | 704 |
| CC(C)Cc1nc(N2CCNCC2)c(C#N)c2c1COC(C)(C)C2 | 683 |
| OCCCCc1nccc2c1[nH]c1ccccc12 | 628 |
| O=C(c1ccc2c(c1)N(Cc1ccccc1)CCS2)N1CCN(c2ccccn2)CC1 | 698 |
| Cc1ccc(-n2nc(N3CCN(C(=O)Nc4ccc(F)cc4)CC3)ccc2=O)cc1 | 803 |
| C=CCN1C(=O)COc2ccc(-c3nc(NC(=O)c4ccc(OC)c(OC)c4)sc3C)cc21 | 985 |
| O=C1CC(c2cc(Br)ccc2F)c2scc(S(=O)(=O)c3ccccc3)c2N1 (centres undefined) | 1010 |

Now from value to compound:

| RP-LC retention time [s] | SMILES |
| --- | --- |
| 1220 | Cc1nn(-c2nc(-c3ccc(F)cc3)cs2)c(C)c1CC(=O)N1CCc2ccccc2C1 |
| 915 | Cc1ccc(CNC(=O)N(C)CCc2noc(-c3ccc(F)cc3)n2)cc1 |
| 696 | CCOc1ccc(NC(=O)N2CCC(c3nc(C(=O)N(C)C)c(C)o3)CC2)cc1 |
| 783 | Cc1nc(-c2cccc(N3CC(C(=O)N4CCCc5ccccc54)CC3=O)c2)no1 (centres undefined) |
| 1180 | CCc1cc(C(=O)Nc2ccc(F)c(C)c2)nc2ccnn12 |
| 641 | CCc1ccc(NC(=O)N(CC)c2nc(-c3ccc(C4CCCCC4)cc3)cs2)cc1 |
| 813 | Cn1ncc(Cl)c1C(=O)N1CCCC1c1cccc(F)c1 (centres undefined) |
| 838 | COCCN(CC1(C)CCOCC1)C(=O)c1ccc(Cl)cc1 |
| 668 | Cc1cccn2cc(C(=O)NCc3cc(F)cc(F)c3)nc12 |
| 706 | COCCCNC(=O)Cn1nc(C)c2sc(-c3ccccc3)nc2c1=O |
| 597 | Cc1cc2nc(C(=O)N3CCN(c4ccccn4)CC3)c(=O)n(C)c2cc1C |
| 646 | CCn1c(=O)c(N2CCC(C(=O)NCCN3CCCCCC3)CC2)nc2cccnc21 |
| 1080 | CC(CCc1ccco1)NC(=O)C1CCN(c2nc(-c3ccc(Cl)cc3)no2)CC1 (centres undefined) |
| 656 | CC(CC(=O)N1CCN(Cc2ccccc2)CC1)S(=O)(=O)c1ccc2c(c1)CCN2C(=O)C1CC1 (centres undefined) |
| 801 | Cc1ccc(NC(=O)N2CCC(n3cnc4ccc(C)cc4c3=O)CC2)cc1 |
| 891 | N#Cc1cc2c(nc1SCC(=O)N1CCOCC1)CCCCC2 |
| 915 | Cc1noc(-c2cc(=O)n(CC(=O)Nc3ccc(Cl)cc3)c3ccccc23)n1 |
| 627 | CN1CCN(C(=O)c2cc3c(s2)CCN(C(=O)c2ccc(Cl)cc2)C3)CC1 |
| 666 | O=C(OCCN1CCCCC1)c1c[nH]c2ccccc12 |
| 659 | CC(=O)Nc1nsc(N2CCC(C(=O)N3CCN(c4ccccc4)CC3)CC2)n1 |
| 718 | CS(=O)(=O)Nc1cccc(NC(=O)c2ccc(=O)n(Cc3ccccc3)n2)c1 |
| 737 | CCC1CCCCN1C(=O)c1cnc2nc(C)ccc2c1Nc1cc(C)ccc1C (centres undefined) |
| 675 | CC(C)c1ccc(CNC(=O)c2cn3c(n2)CCCC3)cc1 |
| 951 | O=C(NCc1ccccc1)c1cc(N2CCCC2)n2nccc2n1 |
| 591 | Cn1cccc(C(=O)NCCn2nc(-c3cccs3)ccc2=O)c1=O |

| RP-LC retention time [s] | SMILES |
| --- | --- |
| 678 | Cc1cc(C)c2c(N3CCOCC3)nc(C(=O)NCC3CCCCC3)nc2n1 |
| 969 | O=C(CCc1conc1-c1ccc(F)cc1)NC1CCCCCC1 |
| 1060 | CCc1nc(-c2csc(S(=O)(=O)N3CCCC(C(=O)Nc4ccc(F)cc4F)C3)c2)no1 (centres undefined) |
| 1130 | CCOC(=O)c1nc(Nc2cc(C)c(Cl)cc2OC)c2ccccc2n1 |
| 796 | CC1(C)Cc2cccc(OCC(=O)NCC3CN(c4ccccc4)C(=O)O3)c2O1 (centres undefined) |
| 1130 | O=C(NCc1ccccc1)N1CC(Oc2cccc(-c3nc(-c4ccccc4)no3)c2)C1 |
| 612 | CC(NC(=O)c1cn2c(n1)CCCC2)c1ccc(F)cc1 (centres undefined) |
| 544 | Cc1ccn2c(=O)c(NC(=O)c3ccco3)c(C)nc2c1 |
| 647 | CC(C)NCc1ccc(-c2ccc(F)cc2)o1 |
| 710 | O=C(NCc1cccnc1-c1ccc(F)cc1)c1cc(F)cc(F)c1 |
| 743 | CCS(=O)(=O)Nc1ccc2nc(N3CCN(c4cccc(C)c4C)CC3)cc(C(=O)O)c2c1 |
| 1070 | O=C(c1ccc(-c2csc(C3CC3)n2)cc1)N1CCCCCC1 |
| 1110 | O=C(NCCc1ccc(Cl)cc1)c1nnc(-c2ccc(S(=O)(=O)N3CCCCC3)cc2)o1 |
| 902 | O=C(NCC1CC1)c1sc2ncccc2c1-n1cccc1 |
| 928 | Cc1ccc(Nc2c(-c3ccc(C(=O)O)cc3)nc3cnccn23)c(C)c1 |
| 1080 | Cc1ccc(NC(=O)Cn2c(=O)cc(-c3nc(C(C)C)no3)c3ccccc32)cc1F |
| 684 | CCN1C(=O)c2cccnc2Sc2cc(C(=O)N3CCCC3)ccc21 |
| 820 | Cc1nc(OCC(=O)Nc2ccc(Br)cc2F)c2ccccc2n1 |
| 864 | CCC(C(=O)NCCc1ccco1)n1c2ccccc2c2cnn(C)c(=O)c21 (centres undefined) |
| 791 | Cc1csc(-c2ccc(N3CCN(C(=O)c4ccc5c(c4)OCO5)CC3)nc2)n1 |
| 811 | COc1cccc(CNC(=O)C2=C3CCCN3c3ccccc3S2(=O)=O)c1 |
| 832 | Cc1[nH]c2ccccc2c1C(=O)C(=O)NCC1COc2ccccc2O1 (centres undefined) |
| 690 | O=C(CN1CCN(C(=O)Nc2ccc(Cl)cc2)CC1=O)NC1CCCC1 |
| 579 | CS(=O)(=O)N1CCC(C(=O)N2CC(c3nc(-c4ccccn4)no3)C2)CC1 |
